Results reported in patent publication US20110152166A1, “METHOD OF MODULATION OF PROTEIN PHOSPHORYLATION-DEPENDENT CONFORMATIONAL TRANSITIONS WITH LOW MOLECULAR WEIGHT COMPOUNDS” (priority 2006, published 2011).
Each block holds one molecule with its values, some of them ahead of it. Ends that are not written are not given here.

What was measured:
[1] = target: T1, PDK150-360 (Homo sapiens, UniProt O15530); experiment: Surface plasmon resonance, PDK1 binding to S6K tail peptides
T1 construct: the catalytic domain of PDK1 comprising residues 50-360
T1 sequence (O15530 50-360): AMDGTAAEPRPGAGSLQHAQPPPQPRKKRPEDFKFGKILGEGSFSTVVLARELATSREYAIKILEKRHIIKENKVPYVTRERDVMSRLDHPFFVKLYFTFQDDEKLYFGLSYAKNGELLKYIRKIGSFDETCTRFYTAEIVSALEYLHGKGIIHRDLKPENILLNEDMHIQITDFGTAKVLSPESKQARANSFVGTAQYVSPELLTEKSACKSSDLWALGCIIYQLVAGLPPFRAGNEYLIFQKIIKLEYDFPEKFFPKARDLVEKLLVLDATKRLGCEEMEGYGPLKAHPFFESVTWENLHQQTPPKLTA
Experimental: FIG. 21 (A) Aliquots of S6K1 protein from bar 1, 2, 5 and 6 in FIG. 5B were subjected to immunoblotting with phosphorylation site specific Ab against the activation loop or anti-HA Ab. (B) The kinase activity of PKB<143-479, prephosphorylated by PDK1 in the activation loop, was determined in the presence of increasing concentrations of synthetic PRK2 tail peptides encompassing the HM, which were either nonphosphorylated (PIFtide) or phosphorylated at the tail site (pT958-PIFtide). […] (C) The kinase activity of purified PDK1 was determined in the presence of increasing concentrations of synthetic S6K tail peptide (residues 366-395) that was either phosphorylated at T389 (S371/pT389) or phosphorylated at both 5389 and 5371 (pS371/pT389). Kinase activity is expressed as percent, and data are means+/−SD of 3 independent experiments. (D) Synthetic S371/pT389 S6K tail peptide and pS371/pT389 S6K tail peptide were biotinylated and used to coat streptavidin Sensor Chips. PDK150-360 was injected at different concentrations (0.05-5.4 mM) onto the peptide coated chips. In the inserts, the kinetic constants were obtained by fitting the data to a hyperbola using kaleidagraph software. Representative results from one of several experiments are shown.
BiaCore analysis was performed as described in Biondi et al. (2000). […]

[2] = target: T2, PDK1 (Homo sapiens, UniProt O15530); experiment: PDK1 thermal denaturation; conditions: data not shown
T2 sequence (O15530 1-556): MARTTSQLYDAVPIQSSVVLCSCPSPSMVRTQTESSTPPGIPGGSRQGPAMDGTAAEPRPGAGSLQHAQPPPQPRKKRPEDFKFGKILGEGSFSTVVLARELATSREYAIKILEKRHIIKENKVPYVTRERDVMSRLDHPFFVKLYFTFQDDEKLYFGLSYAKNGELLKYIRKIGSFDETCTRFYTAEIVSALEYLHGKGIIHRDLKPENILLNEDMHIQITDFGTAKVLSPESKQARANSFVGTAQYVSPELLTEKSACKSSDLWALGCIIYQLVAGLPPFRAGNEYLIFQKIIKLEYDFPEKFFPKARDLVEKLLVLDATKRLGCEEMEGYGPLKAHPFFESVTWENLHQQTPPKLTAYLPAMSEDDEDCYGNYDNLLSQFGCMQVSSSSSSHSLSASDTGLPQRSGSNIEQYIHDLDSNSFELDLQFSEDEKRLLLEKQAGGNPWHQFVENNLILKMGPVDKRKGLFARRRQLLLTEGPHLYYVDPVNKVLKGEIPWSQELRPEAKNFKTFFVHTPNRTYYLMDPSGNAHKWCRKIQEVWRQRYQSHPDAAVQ

[3] = target: T3, PDK1 activation of SGK1 [Ser422Asp] (Homo sapiens, UniProt O15530); experiment: SGK1 activation by PDK1 in vitro; type: biochemical; conditions: compound 60 μM
T3 construct: GST (N); made in house; host or cells: HEK293
Experimental: FIG. 4—Small compounds designed to bind the HM/PIF-pocket of PDK1 can block the PDK1-dependent phosphorylation and activation of substrates that require docking to the HM/PIF-pocket of PDK1. (A) Effect of compound 1 (100 and 200 μM) on PDK1 phosphorylation of its substrate S6K1. The phosphorylation reaction was performed in vitro with [γ^32P]ATP and then separated on SDS-PAGE followed by exposure to phosphorimager. The radioactive band corresponding to phosphorylated GST-56K1-T2[Thr412Glu] (S6K[412E]) is indicated. (B) PDK1 or PDK1[Val127Leu] (PDK1[V127L]) were pre-incubated with GST-[…]N-SGK1 [Ser422Asp] […] (C) The activity of S6K was measured in vitro after glutathione sepharose purification; aliquots of purified proteins were separated on SDS-PAGE and the level of activation loop phosphorylation was visualized by immunoblotting using phospho-specific antibodies that recognize the phosphorylated activation loop, followed by stripping of the membranes and re-probing with anti-GST to verify the presence of equal amounts of protein. (D) Cells overexpressing GST-56K1-T2[Thr412Glu] were treated as in (C) but S6K activity was measured in vitro after immunoprecipitation of the GST-fusion protein with anti-GST antibodies; the level of S6K expression was analysed by western-blotting of crude extracts. […]

[4] = target: T2, PDK1; conditions: in the presence of PIFtide (Biondi et al., 2000); cited from earlier work

- binding of PDK1 to tail peptide (in words) [1]: bound equally well
Molecule: S371/pT389: synthetic S6K1 tail peptide (residues 366-395) phosphorylated in the HM

- stabilization of PDK1 to thermal denaturation (in words) [2]: did not stabilize
- SGK1 activation by PDK1 (in words) [3]: inhibited
Molecule: O=C(O)CSC(CC(=O)c1ccc(Cl)cc1)c1ccccc1 (stereo not shown) [Compound 1]

Molecule: REPRILSEEEQEMFRDFDYIADWC [PIFtide, reference compound]
- increase of PDK1 stability to temperature [4]: 10 °C
